Broadly, the solubility is the dissolved amount per volume that the medium holds. A higher solubility goes with much dissolved substance.

The values below come from PMC4386773 (International Journal of Nanomedicine, 2015).

The structures appear in SMILES notation. Converted amounts (≈) assume the structure as drawn. Marks after values point to notes of the source that are not given here.

The nature of data set [1]: Solubility of SNX-2112 in water and oil. It counts as physicochemical.
Data set [2] in a line: Nonparticulate PBPK modeling of SNX-2112 disposition in rats. It counts as in vivo. As to conditions: estimated by nonparticulate PBPK modeling.
The conditions of data set [3]: after oral administration; cited from earlier work.

As to `CC1(C)CC(=O)c2c(C(F)(F)F)nn(-c3ccc(C(N)=O)c(N[C@H]4CC[C@H](O)CC4)c3)c2C1` [SNX-2112], the solubility in data set [1] (soybean oil, oil or lipid) was 5 µg/mL (≈ 10.8 µM); in data set [1] (water), 8 µg/mL (≈ 17.2 µM). In data set [2], the “CLH (hepatic clearance)” value is reported as 0.0246 ^a L/h. The oral bioavailability entry in data set [3] is “hardly bioavailable”.
